Experimental data: ChEMBL document CHEMBL5352401, “Novel cudraisoflavone J derivatives as potent neuroprotective agents for the treatment of Parkinson's disease via the activation of Nrf2/HO-1 signaling” (Eur J Med Chem, 2022)
Values belong to the compound of their own block, whether it stands above or below them. The source made the active and inactive calls. The rule behind the calls is not given here.

Tests used:
PC-12 [1] = assay: Cytotoxicity in rat PC-12 cells assessed as cell viability measured at 30 uM for 24 hrs by MTT assay; format: functional, cell-based
Monoamine oxidase = molecular target: T1, Monoamine oxidase (Mus musculus, UniProt Q8BW75+Q64133); assay: Inhibition of mouse brain mitochondrial MAO using kynuramine as substrate incubated for 15 mins measured fluorometric analysis; format: mitochondria, Mitochondria
T1 sequence (Q8BW75 whole entry): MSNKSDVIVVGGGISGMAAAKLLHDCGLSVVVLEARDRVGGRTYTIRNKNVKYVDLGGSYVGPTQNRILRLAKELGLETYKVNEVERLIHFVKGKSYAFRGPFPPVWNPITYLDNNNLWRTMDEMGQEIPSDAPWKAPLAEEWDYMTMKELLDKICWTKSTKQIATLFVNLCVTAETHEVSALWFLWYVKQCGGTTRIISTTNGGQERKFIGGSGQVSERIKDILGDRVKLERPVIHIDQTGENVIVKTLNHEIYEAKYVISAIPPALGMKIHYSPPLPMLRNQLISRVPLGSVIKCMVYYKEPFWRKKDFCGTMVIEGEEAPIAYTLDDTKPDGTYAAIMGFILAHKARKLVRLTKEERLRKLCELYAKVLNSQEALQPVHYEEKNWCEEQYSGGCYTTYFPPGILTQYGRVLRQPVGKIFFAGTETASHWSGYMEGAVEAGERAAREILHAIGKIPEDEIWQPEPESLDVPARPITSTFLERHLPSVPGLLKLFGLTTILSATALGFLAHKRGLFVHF
T1 sequence (Q64133 whole entry): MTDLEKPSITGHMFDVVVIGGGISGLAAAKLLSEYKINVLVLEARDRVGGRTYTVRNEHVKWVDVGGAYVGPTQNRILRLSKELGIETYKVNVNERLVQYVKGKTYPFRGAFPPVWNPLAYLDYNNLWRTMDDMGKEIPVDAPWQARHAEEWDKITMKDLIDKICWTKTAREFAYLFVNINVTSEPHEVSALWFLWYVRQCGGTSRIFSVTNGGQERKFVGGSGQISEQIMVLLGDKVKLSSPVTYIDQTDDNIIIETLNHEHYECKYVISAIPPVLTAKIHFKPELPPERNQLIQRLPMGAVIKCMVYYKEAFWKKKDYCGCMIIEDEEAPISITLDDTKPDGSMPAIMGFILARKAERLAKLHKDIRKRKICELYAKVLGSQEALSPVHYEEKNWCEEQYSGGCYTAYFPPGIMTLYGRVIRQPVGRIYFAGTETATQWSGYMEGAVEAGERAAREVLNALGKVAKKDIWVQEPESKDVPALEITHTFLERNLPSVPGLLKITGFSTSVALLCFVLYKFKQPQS

PC-12 [2] = assay: Cytotoxicity in rat PC-12 cells assessed as cell viability measured at 10 to 30 uM for 24 hrs by MTT assay; format: functional, cell-based; details: dose 10-30 µM
[3] = molecular target: T2, Nuclear factor erythroid 2-related factor 2 (Rattus norvegicus) (UniProt O54968); assay: Induction of Nrf2 nuclear translocation in rat PC12 cells assessed as increase in phosphorylation of AKT at 10 uM for 2 to 3 hrs by Western blotting analysis; format: cell-based; details: PC-12, filed as activator, time 2-3 hrs
T2 sequence (whole entry): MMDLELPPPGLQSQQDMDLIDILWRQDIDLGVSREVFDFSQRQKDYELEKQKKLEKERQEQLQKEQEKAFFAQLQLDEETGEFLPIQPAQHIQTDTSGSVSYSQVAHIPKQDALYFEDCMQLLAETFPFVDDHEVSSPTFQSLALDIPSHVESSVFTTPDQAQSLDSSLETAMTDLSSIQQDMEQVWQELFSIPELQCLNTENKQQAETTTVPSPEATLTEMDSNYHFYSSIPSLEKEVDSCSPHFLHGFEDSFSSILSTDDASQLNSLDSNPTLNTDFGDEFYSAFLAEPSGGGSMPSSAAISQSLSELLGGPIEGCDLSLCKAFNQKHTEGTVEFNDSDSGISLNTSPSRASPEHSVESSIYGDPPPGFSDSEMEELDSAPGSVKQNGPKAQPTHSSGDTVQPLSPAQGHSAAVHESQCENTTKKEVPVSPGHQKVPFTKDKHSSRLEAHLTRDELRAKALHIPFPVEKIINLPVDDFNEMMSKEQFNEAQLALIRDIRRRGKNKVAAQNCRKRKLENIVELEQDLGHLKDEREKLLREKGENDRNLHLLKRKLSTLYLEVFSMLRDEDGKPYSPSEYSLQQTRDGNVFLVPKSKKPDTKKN

[4] = Neurotoxicity in rotenone induced at rat PC-12 cells assessed as cell viability pretreated with compound for 4 hrs followed by rotenone addition measured after 24 hrs by MTT assay; format: toxicity, cell-based
[5] = molecular target: T2, Nuclear factor erythroid 2-related factor 2 (Rattus norvegicus); assay: Induction of Nrf2 nuclear translocation in rat PC12 cells assessed as increase in phosphorylation of ERK1 pretreated with U0126 for 2 hrs followed by compound addition at 10 uM for 2 to 3 hrs by Western blotting analysis; format: cell-based; details: PC-12, time 2-3 hrs
[6] = molecular target: T2, Nuclear factor erythroid 2-related factor 2 (Rattus norvegicus); assay: Induction of Nrf2 nuclear translocation in rat PC12 cells assessed as increase in phosphorylation of JNK pretreated with SP600125 for 2 hrs followed by compound addition at 10 uM for 2 to 3 hrs by Western blotting analysis; format: cell-based; details: PC-12, time 2-3 hrs
[7] = molecular target: KEAP1/NRF2 (Rattus norvegicus) (UniProt O54968+P57790); assay: Inhibition of Nrf2-Keap1 protein-protein interaction in rat PC-12 cells by Western blotting analysis; format: cell-based
[8] = molecular target: T2, Nuclear factor erythroid 2-related factor 2 (Rattus norvegicus); assay: Induction of Nrf2 nuclear translocation in rat PC12 cells assessed as increase in phosphorylation of ERK2 at 10 uM for 2 to 3 hrs by Western blotting analysis; format: cell-based; details: PC-12, filed as activator, time 2-3 hrs
PC-12 [9] = assay: Neuroprotective activity against 6-OHDA-induced cytotoxicity in rat PC-12 cells at 10 to 30 uM for 4 hrs followed by exposure to 6-OHDA measured after 24 hrs by MTT assay; format: functional, cell-based; details: dose 10-30 µM, time 28.0 hrs
PC-12 [10] = assay: Neuroprotective activity in rat PC-12 cells assessed as fold increase in upregulation of HO-1 expression measured at 30 uM for 6 hrs by immunoblotting analysis; format: functional
PC-12 [11] = assay: Cytotoxicity in rat PC-12 cells assessed as cell viability incubated for 24 hrs by MTT assay; format: functional, cell-based; details: PC-12, 24 h
PC-12 [12] = assay: Antiinflammatory activity in rotenone induced cytotoxicity in rat PC-12 cells assessed as reduction of fluorescence signal pretreated at 10 to 30 uM for 4 hrs followed by rotenone addition treated for 6 hrs measured after 1 hr of H2-DCFDA addition by spectrophotometric analysis; format: functional, cell-based; details: dose 10-30 µM, time 11.0 hrs
[13] = molecular target: T2, Nuclear factor erythroid 2-related factor 2 (Rattus norvegicus); assay: Induction of Nrf2 nuclear translocation in rat PC12 cells at 10 uM for 3 hrs by Western blotting analysis; format: cell-based; details: PC-12, filed as activator
PC-12 [14] = assay: Antiinflammatory activity in 6-OHDA-induced cytotoxicity in rat PC-12 cells assessed as reduction of fluorescence signal pretreated at 10 to 30 uM for 4 hrs followed by 6-OHDA addition treated for 6 hrs measured after 1 hr of H2-DCFDA addition by spectrophotometric analysis; format: functional, cell-based; details: dose 10-30 µM, time 11.0 hrs
PC-12 [15] = assay: Reversal of upregulation of HO-1 in rat PC-12 cells pretreated with LY294002 for 2 hrs followed by compound addition at 10 uM for 2 to 3 hrs by Western blotting analysis; format: functional, cell-based; details: time 2-3 hrs
PC-12 [16] = assay: Reversal of upregulation of HO-1 in rat PC-12 cells pretreated with SP600125 for 2 hrs followed by compound addition at 10 uM for 2 to 3 hrs by Western blotting analysis; format: functional, cell-based; details: time 2-3 hrs
PC-12 [17] = assay: Antiinflammatory activity in 6-OHDA-induced cytotoxicity in rat PC-12 cells assessed as reduction of ROS production pretreated at 10 to 30 uM for 4 hrs followed by 6-OHDA addition treated for 6 hrs measured after 1 hr of H2-DCFDA addition by measuring fluorescence; format: functional, cell-based; details: dose 10-30 µM, time 11.0 hrs
[18] = molecular target: T2, Nuclear factor erythroid 2-related factor 2 (Rattus norvegicus); assay: Induction of Nrf2 nuclear translocation in rat PC12 cells assessed as increase in phosphorylation of Akt pretreated with LY294002 for 2 hrs followed by compound addition at 10 uM for 2 to 3 hrs by Western blotting analysis; format: cell-based; details: PC-12, time 2-3 hrs
[19] = molecular target: T2, Nuclear factor erythroid 2-related factor 2 (Rattus norvegicus); assay: Induction of Nrf2 nuclear translocation in rat PC12 cells assessed as change in phosphorylation of p38 MAPK level at 10 uM for 2 to 3 hrs by Western blotting analysis; format: cell-based; details: PC-12, time 2-3 hrs
PC-12 [20] = assay: Neuroprotective activity in rat PC-12 cells assessed as upregulation of HO-1 expression measured at 10 uM after 3 to 6 hrs by immunoblotting analysis; format: functional, cell-based; details: time 3-6 hrs
PC-12 [21] = assay: Neuroprotective activity against 6-OHDA-induced cytotoxicity in rat PC-12 cells for 4 hrs followed by exposure to 6-OHDA measured after 24 hrs by MTT assay; format: functional, cell-based; details: dose 0.1-30 µM, time 28.0 hrs
PC-12 [22] = assay: Neuroprotective activity in rat PC-12 cells assessed as upregulation of HO-1 expression measured for 6 hrs by immunoblotting analysis; format: functional, cell-based; details: dose 1-30 µM
[23] = Neurotoxicity in rotenone induced at rat PC-12 cells assessed as cell viability at 30 uM pretreated for 4 hrs followed by rotenone addition measured after 24 hrs by MTT assay (reference value: 53.4 +/- 2.6%); format: toxicity, cell-based; details: time 28 hrs, read-out: Activity
[24] = molecular target: T2, Nuclear factor erythroid 2-related factor 2 (Rattus norvegicus); assay: Induction of Nrf2 nuclear translocation in rat PC12 cells assessed as increase in phosphorylation of ERK2 pretreated with U0126 for 2 hrs followed by compound addition at 10 uM for 2 to 3 hrs by Western blotting analysis; format: cell-based; details: PC-12, time 2-3 hrs
PC-12 [25] = assay: Upregulation of HO-1 expression in si-RNA mediated Nrf2 knock down rat PC-12 cells measured by immunoblotting analysis; format: functional, cell-based
[26] = molecular target: T2, Nuclear factor erythroid 2-related factor 2 (Rattus norvegicus); assay: Induction of Nrf2 nuclear translocation in rat PC12 cells assessed as increase in phosphorylation of JNK at 10 uM for 2 to 3 hrs by Western blotting analysis; format: cell-based; details: PC-12, filed as activator, time 2-3 hrs
PC-12 [27] = assay: Antiinflammatory activity in rotenone induced cytotoxicity in rat PC-12 cells assessed as reduction of ROS production pretreated at 10 to 30 uM for 4 hrs followed by rotenone addition treated for 6 hrs measured after 1 hr of H2-DCFDA addition by measuring fluorescence; format: functional, cell-based; details: dose 10-30 µM, time 11.0 hrs
[28] = molecular target: T2, Nuclear factor erythroid 2-related factor 2 (Rattus norvegicus); assay: Induction of Nrf2 nuclear translocation in rat PC12 cells assessed as increase in phosphorylation of ERK1 at 10 uM for 2 to 3 hrs by Western blotting analysis; format: cell-based; details: PC-12, filed as activator, time 2-3 hrs
[29] = molecular target: T2, Nuclear factor erythroid 2-related factor 2 (Rattus norvegicus); assay: Inhibition of Nrf2 nuclear translocation in rat PC12 cells assessed as increase in phosphorylation of p38 MAPK pretreated with SB203580 for 2 hrs followed by compound addition at 10 uM for 2 to 3 hrs by Western blotting analysis; format: cell-based; details: PC-12, time 2-3 hrs
Brain = assay: Antioxidant activity in Fe2+/L-ascorbic acid induced Sprague-Dawley rat brain homogenate assessed as inhibition of lipid peroxide production measured at 100 uM after 60 mins by microplate reader method relative to control; format: functional, tissue-based
PC-12 [30] = assay: Reversal of upregulation of HO-1 in rat PC-12 cells pretreated with U0126 for 2 hrs followed by compound addition at 10 uM for 2 to 3 hrs by Western blotting analysis; format: functional, cell-based; details: time 2-3 hrs
PC-12 [31] = assay: Cytotoxicity in 6-OHDA induced rat PC-12 cells assessed as cell viability pretreated with ZnPP for 30 mins followed by compound addition at 10 uM for 4 hrs and measured after 24 hrs of […] addition by MTT assay; format: functional, cell-based; details: time 28.0 hrs
PC-12 [32] = assay: Neuroprotective activity against 6-OHDA-induced cytotoxicity in rat PC-12 cells at 0.1 uM for 4 hrs followed by exposure to 6-OHDA measured after 24 hrs by MTT assay; format: functional, cell-based; details: time 28.0 hrs
PC-12 [33] = assay: Cytotoxicity in rat PC-12 cells assessed as cell viability measured upto 30 uM for 24 hrs by MTT assay relative to control; format: functional; details: up to 30 µM

- IC50 (Monoamine oxidase): 25.8 µM
Compound: CC1(C)C=Cc2c(cc3occ(-c4ccc(O)cc4)c(=O)c3c2O)O1 [ALPINUMISOFLAVONE]
- Activity (PC-12 [1]): Active

- Activity [3]: Active
- Activity [5]: inactive
- Activity [6]: inactive
- inhibition [7]: Active
- Activity [8]: Active
- Activity [13]: Active
- Activity [18]: inactive
- Activity [19]: inactive
- Activity [24]: inactive
- Activity [26]: Active
- Activity [28]: Active
- inhibition [29]: Active
Compound: CC1(C)Oc2c(c(O)cc3occ(-c4ccc(F)cc4F)c(=O)c23)CC1O (configuration not stated)
- Activity (PC-12 [2]): Active
- IC50 [4]: 4.7 µM
- Activity (PC-12 [9]): Active
- fold change (FC) (PC-12 [10]): 1.5
- IC50 (PC-12 [11]): 4.2 µM
- Activity (PC-12 [12]): Active
- Activity (PC-12 [14]): Active
- Activity (PC-12 [15]): Active
- Activity (PC-12 [16]): Active
- Activity (PC-12 [17]): Active
- Activity (PC-12 [20]): Active
- Activity (PC-12 [21]): Dose-Dependent Effect
- Activity (PC-12 [22]): Dose-Dependent Effect
- viability at 30 µM [23]: ≤ 79.9%
- Activity (PC-12 [25]): inactive
- Activity (PC-12 [27]): Active
- inhibition (Brain): 50.5%
- Activity (PC-12 [30]): Active
- Activity (PC-12 [31]): Active

Compound: CCOc1ccc(-c2coc3cc4c(c(O)c3c2=O)C=CC(C)(C)O4)cc1
- Activity (PC-12 [32]): Active
- Activity (PC-12 [2]): inactive
- Activity (PC-12 [33]): ~80%
- Activity (PC-12 [9]): Active
